molecular target: human activated kallikrein enzyme (Homo sapiens, UniProt P03952); test: Plasma kallikrein inhibition, fluorogenic PFR-AMC substrate, 500 pM activated kallikrein format; assay type: biochemical; conditions: 500 pM activated kallikrein, 300 uM PFR-AMC, 30 min preincubation, 10 min reaction; read-out: Primary Dose Response Assay: Average EC50
Outline: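 Enzyme (500 pM) was preincubated with inhibitor for 30 min at room temperature in 20 mM Tris pH 7.5, 1 mM EDTA, 150 mM NaCl, 0.1% PEG-400 and 0.1% Triton X-100. The reaction was started with 300 uM PFR-AMC, run 10 min, and fluorescence read at 460 nm (380 nm excitation). EC50 derived.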

human activated kallikrein enzyme, sequence (P03952 391-638 limits assumed): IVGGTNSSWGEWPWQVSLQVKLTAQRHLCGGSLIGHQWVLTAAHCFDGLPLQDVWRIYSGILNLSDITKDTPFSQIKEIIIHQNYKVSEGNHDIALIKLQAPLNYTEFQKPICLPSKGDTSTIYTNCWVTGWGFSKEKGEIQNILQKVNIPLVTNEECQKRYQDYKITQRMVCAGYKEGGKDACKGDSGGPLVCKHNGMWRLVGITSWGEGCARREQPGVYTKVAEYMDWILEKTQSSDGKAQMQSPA
human activated kallikrein enzyme, sequence (P03952 20-390 partner limits assumed): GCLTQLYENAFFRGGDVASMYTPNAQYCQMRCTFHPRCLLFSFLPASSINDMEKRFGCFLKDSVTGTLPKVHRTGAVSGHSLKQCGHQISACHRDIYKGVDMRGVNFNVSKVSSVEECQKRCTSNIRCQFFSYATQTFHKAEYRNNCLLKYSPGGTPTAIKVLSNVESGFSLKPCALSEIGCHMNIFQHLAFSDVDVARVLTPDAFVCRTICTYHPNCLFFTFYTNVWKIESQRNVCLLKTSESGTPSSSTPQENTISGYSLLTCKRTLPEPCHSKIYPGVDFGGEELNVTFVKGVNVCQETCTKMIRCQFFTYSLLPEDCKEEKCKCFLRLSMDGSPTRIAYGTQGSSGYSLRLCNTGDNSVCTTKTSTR

Row | SMILES | EC50 [nM]
1 | CC1(C)CC(=O)N(c2cc(C3CC3)cn3cc(CNc4cc(NC(=O)[C@H]5C[C@@H]5c5cccc(Cl)c5)ncn4)nc23)C1 (racemic) [Example 66, rac-(1S*,2S*)-2-(3-chlorophenyl)-N-(6-(((6-cyclopropyl-8-(4,4-dimethyl-2-oxopyrrolidin-1-yl)imidazo[1,2-a]pyridin-2-yl)methyl)amino)pyrimidin-4-yl)cyclopropane-1-carboxamide] | 1 to 10
2 | Cc1ccnc([C@H]2C[C@@H]2C(=O)Nc2cc(OCc3ccccc3)cc(OCc3cn4cc(C5CC5)cc(N5CC(=O)N(C)C5=O)c4n3)n2)n1 [Example 660, (1S,2S)—N-(4-(benzyloxy)-6-((6-cyclopropyl-8-(3-methyl-2,4-dioxoimidazolidin-1-yl)imidazo[1,2-a]pyridin-2-yl)methoxy)pyridin-2-yl)-2-(4-methylpyrimidin-2-yl)cyclopropane-1-carboxamide] | 10 to 100
3 | Cc1ccnc([C@@H]2C[C@H]2C(=O)Nc2cc(OCc3cn4cc(C5CC5)cc(N5CC(=O)N(C)C5=O)c4n3)ncn2)n1 (single isomer, unassigned) [Example 29] | 100 to 1000
4 | O=C(Nc1cc(OCc2cn3cc(C4CC4)ccc3n2)cnn1)[C@H]1C[C@@H]1c1cccc(Cl)c1 (racemic) [Example 103, rac-(1S*,2S*)-2-(3-chlorophenyl)-N-(5-((6-cyclopropylimidazo[1,2-a]pyridin-2-yl)methoxy)pyridazin-3-yl)cyclopropane-1-carboxamide] | 10 to 100
5 | CCc1cc(N2CC(=O)N(C)C2=O)c2nc([C@@H](C)Nc3cc(NC(=O)[C@H]4C[C@@H]4c4nccc(C)n4)nc(C)n3)cn2c1 [Example 429, (1S,2S)-N-(6-(((R)-1-(6-ethyl-8-(3-methyl-2,4-dioxoimidazolidin-1-yl)imidazo[1,2-a]pyridin-2-yl)ethyl)amino)-2-methylpyrimidin-4-yl)-2-(4-methylpyrimidin-2-yl)cyclopropane-1-carboxamide] | < 1
6 | N#Cc1ccc(Cl)cc1[C@H]1C[C@@H]1C(=O)Nc1nccc2nn(Cc3cn4cc(C5CC5)ccc4n3)cc12 (racemic) [Example 579, rac-(1S*,2S*)-2-(5-chloro-2-cyanophenyl)-N-(2-((6-cyclopropylimidazo[1,2-a]pyridin-2-yl)methyl)-2H-pyrazolo[4,3-c]pyridin-4-yl)cyclopropane-1-carboxamide] | < 1

Results, then the compound that gave them:

Row | EC50 [nM] | SMILES
7 | < 1 | Cc1cc(NC(=O)[C@H]2C[C@@H]2c2nccc(C)n2)nc(OCc2cn3cc(C4CC4)cc(N4CC(=O)N(C)C4=O)c3n2)n1 [Example I-652, (1S,2S)—N-(2-((6-cyclopropyl-8-(3-methyl-2,4-dioxoimidazolidin-1-yl)imidazo[1,2-a]pyridin-2-yl)methoxy)-6-methylpyrimidin-4-yl)-2-(4-methylpyrimidin-2-yl)cyclopropane-1-carboxamide]
8 | 10 to 100 | O=C(Nc1cc(NCc2cn3cc(C4CC4)ccc3n2)ccn1)[C@H]1C[C@@H]1c1cc(Cl)cnn1 (racemic) [Example I-211, rac-(1S*,2S*)-2-(5-chloropyridazin-3-yl)-N-(4-(((6-cyclopropylimidazo[1,2-a]pyridin-2-yl)methyl)amino)pyridin-2-yl)cyclopropane-1-carboxamide]
9 | < 1 | Cc1ccnc([C@H]2C[C@@H]2C(=O)Nc2cccc(NCc3cn4cc(C5CC5)cc(N5CC(=O)N(C)C5=O)c4n3)c2)n1 [Example I-644, (1S,2S)—N-(3-(((6-cyclopropyl-8-(3-methyl-2,4-dioxoimidazolidin-1-yl)imidazo[1,2-a]pyridin-2-yl)methyl)amino)phenyl)-2-(4-methylpyrimidin-2-yl)cyclopropane-1-carboxamide]
